Test results taken from patent publication US20030055065A1, “Tricyclic amide and urea compounds useful for inhibition of G-protein function and for treatment of proliferative diseases” (priority 1993, published 2003).
Values joined by “and” are separate entries in the source; they are usually repeats but may differ in a detail not shown here. Identical values can stand only once.

Each compound was assayed against T1, farnesyl protein transferase (FPT), partially purified from rat brain (Rattus norvegicus, UniProt Q02293+Q04631) (assay: Inhibition of farnesyl protein transferase (transfer of [3H]farnesyl to Ras-CVLS)). Settings: (1.3) μM.
T1 construct: were partially purified from rat brain by ammonium sulfate fractionation followed by Q-Sepharose
T1 sequence (Q02293 whole entry, one chain of several): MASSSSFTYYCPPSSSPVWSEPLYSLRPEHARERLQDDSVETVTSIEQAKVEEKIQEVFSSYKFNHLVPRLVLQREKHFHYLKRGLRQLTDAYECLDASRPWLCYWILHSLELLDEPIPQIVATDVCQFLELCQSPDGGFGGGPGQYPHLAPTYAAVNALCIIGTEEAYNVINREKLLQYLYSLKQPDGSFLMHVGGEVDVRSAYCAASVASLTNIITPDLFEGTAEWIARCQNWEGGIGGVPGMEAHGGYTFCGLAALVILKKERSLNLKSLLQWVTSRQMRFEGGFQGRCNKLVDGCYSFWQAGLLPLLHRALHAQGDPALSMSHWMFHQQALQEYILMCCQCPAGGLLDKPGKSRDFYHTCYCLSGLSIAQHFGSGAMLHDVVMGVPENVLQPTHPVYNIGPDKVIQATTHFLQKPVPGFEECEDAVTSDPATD
Type: biochemical
Method: 1. In vitro enzyme assays: Inhibition of farnesyl protein transferase and geranylgeranyl protein transferase.
Human farnesyl protein transferase was also expressed in E. coli, using cDNA clones encoding both the α and β subunits. […] Human farnesyl protein transferase was partially-purified from the soluble protein fraction of E. coli as described above. […] Two forms of val^12-Ha-Ras protein were prepared as substrates for these enzymes, differing in their carboxy terminal sequence. One form terminated in cysteine-valine-leucine-serine (Ras-CVLS) the other in cystein-valine-leucine-leucine (Ras-CVLL). Ras-CVLS is a substrate for the farnesyl protein transferase while Ras-CVLL is a substrate for geranylgeranyl protein transferase I. The cDNAs encoding these proteins were constructed so that the proteins contain an amino-terminal extension of 6 histidine residues. Both proteins were expressed in Escherichia coli and purified using metal chelate affinity chromatography. The radiolabelled isoprenyl pyrophosphate substrates, [^3H]farnesyl pyrophosphate and [3H]geranylgeranyl pyrophosphate, were purchased from DuPont/New England Nuclear.
The reaction was allowed to proceed for 30 minutes at room temperature and then stopped with 0.5 ml of 4% sodium dodecyl sulfate (SDS) followed by 0.5 ml of cold 30% trichloracetic acid (TCA). Samples were allowed to sit on ice for 45 minutes and precipitated Ras protein was then collected on GF/C filter paper mats using a Brandel cell harvester. […] Percent inhibition was calculated relative to the DMSO vehicle control.
With `O=C(Cc1cc[n+]([O-])cc1)N1CCC(=C2c3ccc(Cl)cc3CCc3cc(F)cnc32)CC1` [Example 411-N] the “FPT inhibition at the concentration in parentheses” value was 44(1.3).

Same assay, conditions: FPT IC50, enzyme inhibition
In the case of `O=C(Cc1ccc[n+]([O-])c1)N1CCN([C@@H]2c3ccc(Cl)cc3CCc3cccnc32)CC1` [Example 425-F], the IC50 is reported as 7 µM.

Same assay, conditions: Ras-CVLS farnesylation, partially purified rat brain FPT; read-out: FPT IC50
`O=C(Cc1cc[n+]([O-])cc1)N1CCC(=C2c3ccc(Cl)cc3CCc3ccc[n+]([O-])c32)CC1` [Example 232] showed an IC50 of 6 µM. With `CC1(C2CCN(C(=O)Cc3cc[n+]([O-])cc3)CC2)c2ccc(Cl)cc2CCc2cccnc21` (centres unmarked) [Example 401-A] the IC50 was 1.7 µM. Work on `O=C(Cc1cccnc1)N1CCC(=C2c3ccc(Cl)cc3CCc3c(SCc4ccccc4)ccnc32)CC1` [Example 258] yielded an IC50 of 10.8 µM. Work on `N[C@@H](CO)C(=O)N1CCC(CC(=O)N2CCN(C3c4ccc(Cl)cc4CCc4cccnc43)CC2)CC1` (some centres unmarked) [Example 433-A] yielded an IC50 of 1.1 µM. `C[S+]([O-])c1ccnc2c1CCc1cc(Cl)ccc1C2=C1CCN(C(=O)Cc2cccnc2)CC1` (centres unmarked) [Example 256] was tested, and the IC50 was 4.9 µM. `O=C(O)c1ccc(C(=O)N2CCC(=C3c4ccc(Cl)cc4CCc4cccnc43)CC2)cc1` [Example 106] gave an IC50 of 5.3 µM. `CN1CCN(CC(=O)N2CCC(=C3c4ccc(Cl)cc4CCc4cccnc43)CC2)CC1` [Example 410-H] showed an IC50 of 7 µM. With `CSc1cc(CC(=O)N2CCC(=C3c4ccc(Cl)cc4CCc4cc(Br)cnc43)CC2)ccn1` [Example 410-V] the IC50 was 1.17 µM. Work on `CC(=O)N1CCC(=C2c3ccc(Cl)cc3CCc3c(Cl)cc[n+]([O-])c32)CC1` [Example 74C] yielded an IC50 of 11.6 µM. With `CN1CCCC(C(=O)N2CCN(C3c4ccc(Cl)cc4CCc4cccnc43)CC2)C1` (centres unmarked) [Example 195] the IC50 was 6.8 µM. `O=C(C1CCCO1)N1CCC(=C2c3ccc(Cl)cc3CCc3cccnc32)CC1` (centres unmarked) [Example 19A] was tested, and the IC50 was 5.1 µM. `COC(=O)c1ccc(C(=O)N2CCC(=C3c4ccc(Cl)cc4CCc4cccnc43)CC2)cc1` [Example 13] was tested, and the IC50 was 4.5 µM. `O=C(c1ccnc2ccccc12)N1CCC(=C2c3ccc(Cl)cc3CCc3cccnc32)CC1` [Example 38] gave an IC50 of 12.1 µM. Compound `CSc1ccc(C(=O)N2CCC(=C3c4ccc(Cl)cc4CCc4cccnc43)CC2)cc1` [Example 108] has an IC50 of 6.9 µM. `O=C(Cc1ccncc1)N1CCC(=C2c3ccc(Cl)cc3CCc3c2ncc(Br)c3Cl)CC1` [Example 356] was tested, and the IC50 was 0.062 µM and 0.073 µM. For `O=C(Cc1cccnc1)N1CCC(=C2c3ccc(Cl)cc3CCc3c2ncc(Br)c3O)CC1` [Example 253], the IC50 was 4.3 µM. With `CNS(=O)(=O)c1ccc(C(=O)N2CCC(=C3c4ccc(Cl)cc4CCc4cccnc43)CC2)cc1` [Example 92] the IC50 was 3.9 µM. Work on `COc1ccnc2c1CCc1cc(Cl)ccc1C2=C1CCN(C(C)=O)CC1` [Example 136] yielded an IC50 of 11.5 µM. `CC(=O)N(C)CCC(=O)N1CCC(=C2c3ccc(Cl)cc3CCc3cccnc32)CC1` [Example 113] gave an IC50 of 10.3 µM. Work on `O=C(Cc1ccncc1)N1CCC(C2c3ccc(Cl)cc3C([N+](=O)[O-])=Cc3cccnc32)CC1` (centres unmarked) [Example 410-L] yielded an IC50 of 2.9 µM. Work on `CC(O)C(=O)N1CCC(=C2c3ccc(Cl)cc3CCc3cccnc32)CC1` (centres unmarked) [Example 116] yielded an IC50 of 15.7 µM. With `O=C(Nc1cccnc1)N1CCC(=C2c3ccc(Cl)cc3CCc3c(On4nnc5ccccc54)ccnc32)CC1` [Example 262] the IC50 was 0.82 µM. Work on `O=C(c1ccnnc1)N1CCC(=C2c3ccc(Cl)cc3CCc3cccnc32)CC1` [Example 14] yielded an IC50 of 4.6 µM. `O=C(c1cnc(O)nc1O)N1CCC(=C2c3ccc(Cl)cc3CCc3cccnc32)CC1` [Example 33] was tested, and the IC50 was 8.7 µM. Compound `O=C(c1cnccn1)N1CCC(=C2c3ccc(Cl)cc3CCc3cccnc32)CC1` [Example 27] has an IC50 of 7.3 µM. `CC(=O)N1CCC(=C2c3ccncc3CCc3cc(Cl)ccc32)CC1` [Example 143] was tested, and the IC50 was 35.4 µM. `NCC(=O)N1CCC(CC(=O)N2CCN(C3c4ccc(Cl)cc4CCc4cccnc43)CC2)CC1` (centres unmarked) [Example 433-C] was tested, and the IC50 was 2.5 µM. In the case of `O=C(c1cncc2ccccc12)N1CCC(=C2c3ccc(Cl)cc3CCc3cccnc32)CC1` [Example 32], the IC50 is reported as 8.7 µM. `O=C(c1cc([N+](=O)[O-])c(O)c([N+](=O)[O-])c1)N1CCC(=C2c3ccc(Cl)cc3CCc3cccnc32)CC1` [Example 31] was tested, and the IC50 was 8.3 µM. Work on `O=C(Cc1cccs1)N1CCC(=C2c3ccc(Cl)cc3CCc3cccnc32)CC1` [Example 102] yielded an IC50 of 4.6 µM. In the case of `CC(=O)N1CCC(=C2c3ccc(Cl)cc3CCc3cc(C)cnc32)CC1` [Example 64], the IC50 is reported as 10.6 µM.

Same assay, conditions: at 10 μM
For `O=C(N[C@@H](Cc1ccccc1)C(=O)N1CCN(C2c3ccc(Cl)cc3CCc3cccnc32)CC1)OCc1ccccc1` (some centres unmarked) [Example 213], the FPT inhibition was 23% @. Compound `CC(C)(C)OC(=O)N[C@@H](Cc1ccccc1)C(=O)N1CCN(C2c3ccc(Cl)cc3CCc3cccnc32)CC1` (some centres unmarked) [Example 214] has an FPT inhibition of 0% @.

Same assay, conditions: at 11.8 μM
`O=C(Cc1c[nH]c2ccccc12)N1CCC(=C2c3ccc(Cl)cc3CCc3cccnc32)CC1` [Example 129] showed an FPT inhibition of 32% at 11.8 μM.

Same assay, conditions: at 12.1 μM
`CC(=O)N1CCC(=C2c3ccc(Cl)cc3CCc3ccc[n+](C)c32)CC1` [Example 130] showed an FPT inhibition of 7% at 12.1 μM.

Same assay, conditions: at 12.8 μM
With `Cc1cc(C(=O)N2CCC(=C3c4ccc(Cl)cc4CCc4cccnc43)CC2)cc(Cl)n1` [Example 124] the FPT inhibition was 37% at 12.8 μM.

Same assay, conditions: at 15.2 μM
Work on `CC(=O)c1cnc2c(c1)CCc1cc(Cl)ccc1C2=C1CCN(C(C)=O)CC1` [Example 139] yielded an FPT inhibition of 37% at 15.2 μM.

Same assay, conditions: at 15.6 μM
`CC(=O)N1CCC(=C2c3ccc(Cl)cc3CCc3ccc[n+]([O-])c32)CC1` [Example 73] showed an FPT inhibition of 27% at 15.6 μM.

Same assay, conditions: at 18.8 μM
`CC(=O)N1CCC(=C2c3ccccc3CCc3cccnc32)CC1` [Example 147] showed an FPT inhibition of 0% at 18.8 μM.

Same assay, conditions: at 50 μM
With `CC(=O)N1CCC(C2c3cc4ccccc4cc3CCc3ccc[n+]([O-])c32)CC1` (centres unmarked) [Example 141] the FPT inhibition was 29% at 50 μM.

Same assay, conditions: enzyme inhibition; read-out: FPT IC50
In the case of `CN1CCCC(CC(=O)N2CCC(=C3c4ccc(Cl)cc4CCc4cc(Cl)cnc43)CC2)C1` (centres unmarked) [Example 411-V], the IC50 is reported as 0.27 µM. For `O=C(Nc1ccc[n+]([O-])c1)N1CCN(C2c3ccc(Cl)cc3CCc3cc(Br)cnc32)CC1` (centres unmarked) [Example 427-C], the IC50 was 0.24 µM. In the case of `CN1CCC(CC(=O)N2CCN(C3c4ccc(Cl)cc4CCc4cc(Br)cnc43)CC2)CC1` (centres unmarked) [425-O (5.126)], the IC50 is reported as 0.17 µM and 0.14 µM and 0.122 µM and 0.118 µM and 0.178 µM. `CCN1CCC(CC(=O)N2CCN(C3c4ccc(Cl)cc4CCc4cccnc43)CC2)CC1` (centres unmarked) [Example 429] gave an IC50 of 1.27 µM. `CNC(=O)N1CCCC(CC(=O)N2CCN(C3c4ccc(Cl)cc4CCc4cccnc43)CC2)C1` (centres unmarked) [Example 431-G] showed an IC50 of 7 µM. Compound `O=C(Cc1cc[n+]([O-])cc1)N1CCC(=C2c3ccc(Cl)cc3CCc3cc(F)cnc32)CC1` [Example 411-N] has an IC50 of roughly 2 µM. Work on `O=C(Cc1cc[n+]([O-])cc1)N1CCC(=C2c3ccc(Cl)cc3CCc3cc(Cl)ccc32)CC1` [Example 422] yielded an IC50 of 0.6 µM. With `NC(=O)N1CCCC(CC(=O)N2CCN(C3c4ccc(Cl)cc4CCc4cccnc43)CC2)C1` (centres unmarked) [Example 431-F] the IC50 was 1.75 µM. `CN1CCC(CC(=O)N2CCC(=C3c4ccc(Cl)cc4CCc4cc(Cl)cnc43)CC2)CC1` [Example 411-X] gave an IC50 of 0.45 µM. Compound `CC(C)(C(=O)N1CCN(C2c3ccc(Cl)cc3CCc3cccnc32)CC1)c1cc[n+]([O-])cc1` (centres unmarked) [Example 425-A] has an IC50 of 2.2 µM. For `CN1CCCC(CC(=O)N2CCN([C@@H]3c4ccc(Cl)cc4CCc4cccnc43)CC2)C1` (some centres unmarked) [Example 425-R], the IC50 was 1.7 µM. Compound `CC(C)(C)NC(=O)N1CCC(CC(=O)N2CCN(C3c4ccc(Cl)cc4CCc4cccnc43)CC2)CC1` (centres unmarked) [Example 431-D] has an IC50 of 1 µM. In the case of `O=C(CC1CCCNC1)N1CCN(C2c3ccc(Cl)cc3CCc3cccnc32)CC1` (centres unmarked) [Example 428-A], the IC50 is reported as 1.1 µM. Compound `O=C(Cc1ccncc1)N1CCC(=C2c3ccc(Cl)cc3CCc3cc(F)cnc32)CC1` [Example 411-M] has an IC50 of 0.65 µM.
